Laboratory results: patent US7259167B2, “Antimalarial and antiproliferative pharmacophore models, novel tryptanthrin compounds having increased solubility, and methods of making and using thereof” (United States of America as Represented by the Secretary of …, priority 2002, dated 2007)

Assay: Solubility of DN49 in various solvents
Format: physicochemical
Conditions: for solubility: organic solvent or mixture
Protocol: The solubility of DN49 (WR288510) was tested in various solvents to determine the properties encouraging solubility. […] An N—H group on an aromatic compound might be forming a complex with tryptanthrin. […] (200 mM) concentration in a solvent. The temperature is a close approximation to the temperature required to achieve solubility. Color is the color of the solution; DN49 is a yellow compound and colors other than yellow indicate close interaction between solvent and solute. Precipitate is whether or not DN49 precipitated out upon cooling to room temperature.

For `O=C1c2ccccc2-n2c1nc1ncccc1c2=O` [DN49], the “Precipitate upon cooling to room temperature” value (shortened to “Precipitate upon cooling”) (1,4-dioxane) was “yes”, the solubility (1,4-dioxane, 80 °C) was > 25 mg/mL and the solubility (3,4-dihydro-2H-pyran) was < 25 mg/mL. The “Precipitate upon cooling” value (Aniline) was “No”, the solubility (Aniline, 18 °C) was > 25 mg/mL and the “Precipitate upon cooling” value (Benzoic acid) was “Yes”. For the same compound, the solubility (Benzoic acid, 50 °C) was > 25 mg/mL, the solubility (Benzyl alcohol, 30 °C, Benzyly alcohol) was > 25 mg/mL and the “Precipitate upon cooling” value (Benzyly alcohol) was “No”. For the same compound, the solubility (Diethylamine) was < 25 mg/mL, the solubility (Dimethylsulfoxide, Dimethylsufoxide) was < 25 mg/mL and the “Precipitate upon cooling” value (Indole) was “Solidified”. The solubility (Indole, 53 °C) was > 25 mg/mL, the “Precipitate upon cooling” value (Isoquinoline) was “Solidified” and the solubility (Isoquinoline) was > 25 mg/mL. For the same compound, the “Precipitate upon cooling” value (N-methylbenzylamine) was “No”, the solubility (N-methylbenzylamine) was > 25 mg/mL and the solubility (N-methylpiperidine) was < 25 mg/mL. For the same compound, the “Precipitate upon cooling” value (Nitrobenzene) was “Yes”, the solubility (Nitrobenzene) was > 25 mg/mL and the “Precipitate upon cooling” value (Phenol) was “solidified”. The solubility (Phenol) was > 25 mg/mL, the “Precipitate upon cooling” value (Piperidine) was “No” and the solubility (Piperidine) was > 25 mg/mL. For the same compound, the “Precipitate upon cooling” value (Pyridine) was “Yes”, the solubility (Pyridine) was > 25 mg/mL and the “Precipitate upon cooling” value (Pyrrole) was “No”. The solubility (Pyrrole) was > 25 mg/mL, the “Precipitate upon cooling” value (Pyrrolidine) was “No” and the solubility (Pyrrolidine) was > 25 mg/mL. For the same compound, the solubility (Tetrahydrofuran) was < 25 mg/mL, the solubility (Toluene) was < 25 mg/mL and the solubility (Triethylamine) was < 25 mg/mL.
